Source: patent US20160264593A1 (priority 2013, published 2016)
Read-outs that look alike come from different tables or passages of the source.

Key:
[1] = parameters: species or system SD rats; details: male, SD, rat, in vivo, iv, 1 mg/kg
Procedure: 105 was dissolved in 4% NaHCO3 in saline for IV administration. The detailed procedure of dosing solution preparation was presented in Appendix I.
Thirteen (13) animals were placed on the study. The animals in IV arm were free access to food and water. One extra animal was used for blank liver and plasma generation (5 mL per animal). The resulting blank liver and plasma was then applied to the development of bioanalytical method and sample bioanalysis for the entire study.
The IV injection was conducted via foot dorsal vein. Animals were free access to food and water before dose.
The animal is restrained manually. Approximately 150 μL of blood/time point is collected into sodium heparin tube via cardiac puncture for terminal bleeding (anesthetized under carbon dioxide). Blood sample will be put on ice and centrifuged to obtain plasma sample (2000 g, 5 min under 4° C.) within 10 minutes.
The animal will be euthanized with carbon dioxide inhalation. Open abdominal cavity with scissor to expose internal organs. Hold the carcass in an upright position and allow the organs to fall forward. Cut the connective tissues and remove the organs. […]
The PK parameters were determined by non-compartmental model of non-compartmental analysis tool, Pharsight Phoenix WinNonlin® 6.2 software. […]

[2] = Oral administration of 100 and 151 (Discussion): oral bioavailability, plasma and brain levels
[3] = Microsomal stability, human microsomes; assay type: in vitro ADME; details: relative to verapamil
[4] = Microsomal stability, mouse microsomes; assay type: in vitro ADME; details: relative to verapamil
[5] = Microsomal stability, monkey microsomes; assay type: in vitro ADME; details: relative to verapamil
[6] = tested on: U251 human GBM cells; details: 100 ip together with radiation, daily for 5 days x 3 courses; 6 months plus follow-up
Procedure: The mechanism of potentiation is impairment of multiple steps in a DNA-damage repair process and inhibition of exit from mitosis. […] Mice bearing subcutaneous (sc) xenografts of U251 human GBM cells were treated with compound 100 intraperitoneally together with radiation, each given daily for 5 days×3 courses.

[7] = in vivo
[8] = rat, in vivo
[9] = Microsomal stability, rat microsomes; assay type: in vitro ADME; details: relative to verapamil
[10] = day 4, cited from earlier work
[11] = tested on: human cancer cell lines; test: IC50 for a broad spectrum of human cancer cell lines; assay type: cell-based
[12] = tested on: PP2A in circulating white blood cells; test: Inhibition of PP2A in circulating white blood cells after slow iv 100; assay type: in vivo; details: rat
[13] = rat, in vivo; remark: listed apart in the source

O=C(O)C1C2CCC(O2)C1C(=O)O (centres unmarked) [Endothal, 7-oxabicyclo[2.2.1]heptane-2,3-dicarboxylic acid]
AUC(0-t) [1]: 3152 ng·h/mL | Tmax [1]: 15 min

COC(=O)C1C2CCC(O2)C1C(=O)N1CCN(C)CC1 (centres unmarked) [Compound 151]
151 in brain tissue (statement) ([2]; 151 given by mouth to rats): barely detectable in brain tissue | levels of compound 100 in the plasma after 151 (statement) ([2]; 151 given by mouth to rats): substantial levels of compound 100 in the plasma | oral bioavailability ([2]; Discussion): about 60%

CN1CCN(C(=O)C2C3CCC(O3)C2C(=O)O)CC1 (centres unmarked) [Compound 100, 3-(4-methylpiperazine-1-carbonyl)-7-oxa-bicyclo[2,2,1]-heptane-2-carboxylic acid]
stability in the presence of microsomes [3]: stable relative to verapamil | stability in the presence of microsomes [4]: stable relative to verapamil | stability in the presence of microsomes [5]: stable relative to verapamil | xenografts eliminated [6]: 60% | passage of the blood brain barrier (BBB) (statement) [7]: does not readily pass the blood brain barrier | presence in plasma after oral administration (statement) [8]: little is present in plasma | stability in the presence of microsomes [9]: stable relative to verapamil | Cl ([10]; MALE rats, 0.5 mg/kg): 17.85 mL/min/kg | Cl ([10]; MALE rats, 0.75 mg/kg): 22.32 mL/min/kg | Cl ([10]; MALE rats, 1.25 mg/kg): 15.8 mL/min/kg | % AUC* Extrapolated ([10]; female rats, 0.5 mg/kg): 5.6% | AUC* ([10]; female rats, 0.5 mg/kg): 479 ng·h/mL | AUClast ([10]; female rats, 0.5 mg/kg): 452 ng·h/mL | Cl ([10]; female rats, 0.5 mg/kg): 17.42 mL/min/kg | Co ([10]; female rats, 0.5 mg/kg): 1497 ng/mL | DN AUClast ([10]; female rats, 0.5 mg/kg): 904 | SC AUClast ([10]; female rats, 0.5 mg/kg): 17.7 ng·h/mL | T1/2 ([10]; female rats, 0.5 mg/kg): 15 min | Vz ([10]; female rats, 0.5 mg/kg): 0.378 L/kg | % AUC* Extrapolated ([10]; female rats, 0.75 mg/kg): 27% | AUC* ([10]; female rats, 0.75 mg/kg): 949 ng·h/mL | AUClast ([10]; female rats, 0.75 mg/kg): 691 ng·h/mL | Cl ([10]; female rats, 0.75 mg/kg): 13.2 mL/min/kg | Co ([10]; female rats, 0.75 mg/kg): 2347 ng/mL | DN AUClast ([10]; female rats, 0.75 mg/kg): 921 | SC AUClast ([10]; female rats, 0.75 mg/kg): 54.0 ng·h/mL | T1/2 ([10]; female rats, 0.75 mg/kg): 35.4 min | Vz ([10]; female rats, 0.75 mg/kg): 0.677 L/kg | % AUC* Extrapolated ([10]; female rats, 1.25 mg/kg): 17% | AUC* ([10]; female rats, 1.25 mg/kg): 2853 ng·h/mL | AUClast ([10]; female rats, 1.25 mg/kg): 2359 ng·h/mL | Cl ([10]; female rats, 1.25 mg/kg): 7.3 mL/min/kg | Co ([10]; female rats, 1.25 mg/kg): 3849 ng/mL | DN AUClast ([10]; female rats, 1.25 mg/kg): 1887 | SC AUClast ([10]; female rats, 1.25 mg/kg): 747 ng·h/mL | T1/2 ([10]; female rats, 1.25 mg/kg): 108 min | Vz ([10]; female rats, 1.25 mg/kg): 1.138 L/kg | IC50 [11]: 1000 to 3000 nM | inhibition of PP2A in circulating white blood cells ([12]; 100 slow iv 0.375 mg/kg): 9% | inhibition of PP2A in circulating white blood cells ([12]; 100 slow iv 0.75 mg/kg): 15% | inhibition of PP2A in circulating white blood cells ([12]; 100 slow iv 1.5 mg/kg): 25% | passage of the blood brain barrier (BBB) (statement) [13]: does not readily pass the blood brain barrier
